Test results reported in PubChem BioAssay AID248 (DTP/NCI, 2004).
Values joined by “and” are separate entries in the source; they are usually repeats but may differ in a detail not shown here. Equal values may be shown once. Toxic doses and inconclusive results are not listed. Cut-off read from the data, not from the text of the source: active = T/C of 150% or more; inactive = T/C below 125%.

Test system: L1210 leukemia ip in BDF1 mice, survival T/C
Experiment: NCI In Vivo Anticancer Drug Screen. Data for tumor model L1210 Leukemia (intraperitoneal) in B6D2F1 (BDF1) mice
Conditions: endpoint: mean survival time, higher = longer survival
In short: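 Survival endpoint. Drug-treated group vs vehicle group, expressed as T divided by C. Tumor passaged by transplantation.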

[1] = dose: 100.0 mg/kg/injection, schedule: Q01DX001 (ip), vehicle: saline with Tween-80
[2] = dose: 200.0 mg/kg/injection, schedule: Q01DX001 (ip), vehicle: saline with Tween-80
[3] = dose: 400.0 mg/kg/injection, schedule: Q01DX001 (ip), vehicle: saline with Tween-80
[4] = dose: 100.0 mg/kg/injection, schedule: Q01DX009 (ip), vehicle: Klucel (hydroxypropylcellulose) (HPC)
[5] = dose: 100.0 mg/kg/injection, schedule: Q04DX003 (ip), vehicle: Klucel (hydroxypropylcellulose) (HPC)
[6] = dose: 200.0 mg/kg/injection, schedule: Q04DX003 (ip), vehicle: Klucel (hydroxypropylcellulose) (HPC)
[7] = dose: 200.0 mg/kg/injection, schedule: Q01DX009 (ip), vehicle: Klucel (hydroxypropylcellulose) (HPC)
[8] = dose: 400.0 mg/kg/injection, schedule: Q01DX009 (ip), vehicle: Klucel (hydroxypropylcellulose) (HPC)
[9] = dose: 400.0 mg/kg/injection, schedule: Q04DX003 (ip), vehicle: Klucel (hydroxypropylcellulose) (HPC)
[10] = dose: 100.0 mg/kg/injection, schedule: Q01DX009 (ip), vehicle: saline with Tween-80
[11] = dose: 100.0 mg/kg/injection, schedule: Q04DX003 (ip), vehicle: saline
[12] = dose: 200.0 mg/kg/injection, schedule: Q01DX009 (ip), vehicle: saline with Tween-80
[13] = dose: 200.0 mg/kg/injection, schedule: Q04DX003 (ip), vehicle: saline
[14] = dose: 400.0 mg/kg/injection, schedule: Q01DX009 (ip), vehicle: saline with Tween-80
[15] = dose: 400.0 mg/kg/injection, schedule: Q04DX003 (ip), vehicle: saline
[16] = dose: 100.0 mg/kg/injection, schedule: Q01DX001 (ip), vehicle: saline
[17] = dose: 200.0 mg/kg/injection, schedule: Q01DX001 (ip), vehicle: saline
[18] = dose: 400.0 mg/kg/injection, schedule: Q01DX001 (ip), vehicle: saline

Measured: T/C

Cc1nnc(N(C)C)nc1C
inactive: [1] 98 % of control | [2] 97 % of control | [3] 108 % of control

COc1ccc(Nc2ccccc2C(=O)NN)cc1
inactive: dose: 50.0 mg/kg/injection, schedule: Q01DX009 (ip), vehicle: Klucel (hydroxypropylcellulose) (HPC) 102 % of control | [4] 96 % of control | [5] 94 % of control | [6] 105 % of control

CCCCC/C=C/c1c(C)[nH]c2ccccc2c1=O
inactive: [4] 118 % of control | [5] 100 % of control | [7] 94 % of control | [6] 96 % of control | [8] 99 % of control | [9] 89 % of control

NC(=O)n1cccn1
inactive: dose: 25.0 mg/kg/injection, schedule: Q01DX Z (ip), vehicle: carboxymethylcellulose (CMC) 100 % of control | dose: 50.0 mg/kg/injection, schedule: Q01DX Z (ip), vehicle: carboxymethylcellulose (CMC) 102 % of control | dose: 100.0 mg/kg/injection, schedule: Q01DX Z (ip), vehicle: carboxymethylcellulose (CMC) 102 % of control | dose: 200.0 mg/kg/injection, schedule: Q01DX Z (ip), vehicle: carboxymethylcellulose (CMC) 100 % of control and 109 % of control | dose: 400.0 mg/kg/injection, schedule: Q01DX Z (ip), vehicle: carboxymethylcellulose (CMC) 102 % of control

CN=C(c1ccc(NC(=O)c2ccc(C(=O)Nc3ccc(C(=NC)N4CCOCC4)cc3)c(Cl)c2)cc1)N1CCOCC1
inactive: dose: 0.94 mg/kg/injection, schedule: Q01DX Z (ip), vehicle: carboxymethylcellulose (CMC) 104 % of control | dose: 1.87 mg/kg/injection, schedule: Q01DX Z (ip), vehicle: carboxymethylcellulose (CMC) 101 % of control | dose: 3.75 mg/kg/injection, schedule: Q01DX Z (ip), vehicle: carboxymethylcellulose (CMC) 98 % of control | dose: 7.5 mg/kg/injection, schedule: Q01DX Z (ip), vehicle: carboxymethylcellulose (CMC) 87 % of control | dose: 15.0 mg/kg/injection, schedule: Q01DX Z (ip), vehicle: carboxymethylcellulose (CMC) 91 % of control | dose: 30.0 mg/kg/injection, schedule: Q01DX Z (ip), vehicle: carboxymethylcellulose (CMC) 91 % of control | dose: 60.0 mg/kg/injection, schedule: Q01DX Z (ip), vehicle: carboxymethylcellulose (CMC) 91 % of control

CCCOc1ccc(C=Nc2ccc(C)cc2)cc1
inactive: [4] 98 % of control | [5] 109 % of control | [7] 116 % of control | [6] 101 % of control | [9] 117 % of control

O=C(O)C1C2C3CC(C4CC43)C12 (stereo not given)
inactive: [10] 96 % of control | [11] 96 % of control | [12] 106 % of control | [13] 93 % of control | [14] 96 % of control | [15] 100 % of control

CCC[As](=O)(O)CC[As](=O)(O)CCC
inactive: [1] 104 % of control | [2] 112 % of control | [3] 96 % of control

COC(=O)C1OC1C(=O)OC (stereo not given)
inactive: [4] 91 % of control | dose: 100.0 mg/kg/injection, schedule: Q01DX009 (ip), vehicle: saline 101 % of control | [7] 96 % of control | dose: 200.0 mg/kg/injection, schedule: Q01DX009 (ip), vehicle: saline 100 % of control | [8] 102 % of control | dose: 400.0 mg/kg/injection, schedule: Q01DX009 (ip), vehicle: saline 92 % of control

CC(=O)Nc1nncs1
inactive: dose: 7.0 mg/kg/injection, schedule: Q03HX032 (ip), vehicle: saline with Tween-80 105 % of control | dose: 11.0 mg/kg/injection, schedule: Q03HX032 (ip), vehicle: saline with Tween-80 108 % of control | dose: 16.0 mg/kg/injection, schedule: Q03HX032 (ip), vehicle: saline with Tween-80 107 % of control | dose: 24.0 mg/kg/injection, schedule: Q03HX032 (ip), vehicle: saline with Tween-80 101 % of control | dose: 27.0 mg/kg/injection, schedule: Q01DX015 (ip), vehicle: saline with Tween-80 109 % of control | dose: 31.0 mg/kg/injection, schedule: Q01DX015 (ip), vehicle: carboxymethylcellulose (CMC) 96 % of control | dose: 36.0 mg/kg/injection, schedule: Q03HX032 (ip), vehicle: saline with Tween-80 108 % of control | dose: 40.0 mg/kg/injection, schedule: Q01DX015 (ip), vehicle: saline with Tween-80 95 % of control | dose: 50.0 mg/kg/injection, schedule: Q01DX001 (ip), vehicle: saline 112 % of control | dose: 60.0 mg/kg/injection, schedule: Q01DX015 (ip), vehicle: saline with Tween-80 97 % of control | dose: 62.0 mg/kg/injection, schedule: Q01DX015 (ip), vehicle: carboxymethylcellulose (CMC) 102 % of control | dose: 90.0 mg/kg/injection, schedule: Q01DX015 (ip), vehicle: saline with Tween-80 101 % of control | [16] 115 % of control | dose: 135.0 mg/kg/injection, schedule: Q01DX015 (ip), vehicle: saline with Tween-80 95 % of control | [17] 112 % of control | dose: 248.0 mg/kg/injection, schedule: Q01DX015 (ip), vehicle: carboxymethylcellulose (CMC) 98 % of control | dose: 270.0 mg/kg/injection, schedule: Q01DX001 (ip), vehicle: saline with Tween-80 101 % of control | [3] 109 % of control | [18] 106 % of control | dose: 600.0 mg/kg/injection, schedule: Q01DX001 (ip), vehicle: saline with Tween-80 112 % of control | dose: 900.0 mg/kg/injection, schedule: Q01DX001 (ip), vehicle: saline with Tween-80 109 % of control | dose: 1350.0 mg/kg/injection, schedule: Q01DX001 (ip), vehicle: saline with Tween-80 120 % of control

CCN(CC)CCOC(=O)C1C2CC3OC(=O)C1C3C2 (stereo not given)
inactive: [11] 108 % of control | [13] 95 % of control | [15] 92 % of control

O=C(O)c1ccc(NC(=O)c2ccc(F)cc2)cc1
inactive: [10] 94 % of control | [12] 96 % of control | [14] 105 % of control

CC(Cl)C(=O)OC(C)(C)Cl (stereo not given)
inactive: dose: 75.0 mg/kg/injection, schedule: Q01DX001 (ip), vehicle: carboxymethylcellulose (CMC) 104 % of control | dose: 150.0 mg/kg/injection, schedule: Q01DX001 (ip), vehicle: carboxymethylcellulose (CMC) 107 % of control

CN(C)CC(=O)Nc1cc(Cl)ccc1Oc1ccc(Cl)cc1
inactive: dose: 100.0 mg/kg/injection, schedule: Q04DX003 (ip), vehicle: saline with Tween-80 94 % of control | dose: 200.0 mg/kg/injection, schedule: Q04DX003 (ip), vehicle: saline with Tween-80 100 % of control | dose: 400.0 mg/kg/injection, schedule: Q04DX003 (ip), vehicle: saline with Tween-80 100 % of control

N=C(OC1CCCCC1)N(Cc1ccccc1)Cc1ccccc1
inactive: dose: 44.0 mg/kg/injection, schedule: Q01DX Z (ip), vehicle: methylcellulose (MC) 104 % of control | dose: 66.0 mg/kg/injection, schedule: Q01DX Z (ip), vehicle: methylcellulose (MC) 104 % of control | dose: 100.0 mg/kg/injection, schedule: Q01DX Z (ip), vehicle: methylcellulose (MC) 117 % of control

CN(C)c1ccc(/C=C/c2ccc(N(C)C)cc2)cc1
inactive: [4] 98 % of control | [5] 98 % of control | [7] 102 % of control | [6] 94 % of control | [8] 93 % of control | [9] 100 % of control

CCN(CC)CCC1CCNCC1
inactive: dose: 6.25 mg/kg/injection, schedule: Q01DX009 (ip), vehicle: saline 101 % of control | dose: 12.5 mg/kg/injection, schedule: Q01DX009 (ip), vehicle: saline 95 % of control | dose: 12.5 mg/kg/injection, schedule: Q04DX003 (ip), vehicle: saline 100 % of control | dose: 25.0 mg/kg/injection, schedule: Q01DX009 (ip), vehicle: saline 98 % of control | dose: 25.0 mg/kg/injection, schedule: Q04DX003 (ip), vehicle: saline 96 % of control

COc1ccc(CCN(C)C(c2ccccc2)c2ccccc2)cc1OC
inactive: [16] 100 % of control | [17] 96 % of control | [18] 104 % of control
